Data published in ChEMBL document CHEMBL3885861, “Open TG-GATES”.

Species: Rattus norvegicus
Assay: Open TG-GATES - Regimen: Single
Format: toxicity, organism-based, Sprague-Dawley
Design: regimen Single, gender Male, age 6 weeks
Settings: in vivo, po, route gavage; for Bas / Eos / Fbg / Hb / Ht / Lym / MCH / MCHC / MCV / Mono / Neu / PT / Plat / RBC / Ret / WBC: tissue Blood; for KIDNEY_L / KIDNEY_R / KIDNEY_TOTAL: tissue Kidney; for LIVER: tissue Liver; for ALP / ALT / AST / BUN / CRE / Ca / Cl / DBIL / GLC / IP / K / LDH / Na / PL / RALB / TBIL / TC / TG / TP / gamma-GTP: tissue Plasma
[1] = 0 mg/kg, 3 h, dose level Control
[2] = 0 mg/kg, 6 h, dose level Control
[3] = 0 mg/kg, 9 h, dose level Control
[4] = 0 mg/kg, 24 h, dose level Control

Compound: CN(C)CCCN1c2ccccc2Sc2ccc(Cl)cc21 [CHLORPROMAZINE]
- TERMINAL_BW [1]: 223.8 g
- Bas [1]: 0%
- Eos [1]: 1.2%
- Fbg [1]: 223.6 mg/dL
- Hb [1]: 13.7 g/dL
- Ht [1]: 39.3%
- Lym [1]: 76%
- MCH [1]: 21.8 pg
- MCHC [1]: 34.7%
- MCV [1]: 62.7 fL
- Mono [1]: 2.6%
- Neu [1]: 18.8%
- PT [1]: 12.5 s
- Plat [1]: 116.1 x10_4/uL
- RBC [1]: 627.6 x10_4/ul
- Ret [1]: 7.6%
- WBC [1]: 91.8 x10_2/uL
- KIDNEY_L [1]: 1 g
- KIDNEY_R [1]: 1 g
- KIDNEY_TOTAL [1]: 2 g
- LIVER [1]: 10 g
- ALP [1]: 1021.8 IU/L
- ALT [1]: 37.6 IU/L
- AST [1]: 78.8 IU/L
- BUN [1]: 12.2 mg/dL
- CRE [1]: 0.4 mg/dL
- Ca [1]: 10.8 mg/dL
- Cl [1]: 103.2 meq/L
- DBIL [1]: 0.064 mg/dL
- GLC [1]: 190 mg/dL
- IP [1]: 8.5 mg/dL
- K [1]: 4 meq/L
- LDH [1]: 227.2 IU/L
- Na [1]: 141.6 meq/L
- PL [1]: 131.8 mg/dL
- RALB [1]: 3.5 g/dL
- TBIL [1]: 0.1 mg/dL
- TC [1]: 67.6 mg/dL
- TG [1]: 62.6 mg/dL
- TP [1]: 5.5 g/dL
- gamma-GTP [1]: 1 IU/L
- TERMINAL_BW [2]: 217.9 g
- Bas [2]: 0%
- Eos [2]: 1%
- Fbg [2]: 227.4 mg/dL
- Hb [2]: 13.4 g/dL
- Ht [2]: 38.8%
- Lym [2]: 77.2%
- MCH [2]: 21.1 pg
- MCHC [2]: 34.5%
- MCV [2]: 61.2 fL
- Mono [2]: 2.8%
- Neu [2]: 17.4%
- PT [2]: 12.5 s
- Plat [2]: 113.2 x10_4/uL
- RBC [2]: 634 x10_4/ul
- Ret [2]: 7.6%
- WBC [2]: 104.6 x10_2/uL
- KIDNEY_L [2]: 1 g
- KIDNEY_R [2]: 1 g
- KIDNEY_TOTAL [2]: 1.9 g
- LIVER [2]: 9.2 g
- ALP [2]: 816 IU/L
- ALT [2]: 33.6 IU/L
- AST [2]: 79.8 IU/L
- BUN [2]: 9 mg/dL
- CRE [2]: 0.4 mg/dL
- Ca [2]: 10.7 mg/dL
- Cl [2]: 103.4 meq/L
- DBIL [2]: 0.066 mg/dL
- GLC [2]: 190 mg/dL
- IP [2]: 9.4 mg/dL
- K [2]: 3.9 meq/L
- LDH [2]: 221.2 IU/L
- Na [2]: 141.8 meq/L
- PL [2]: 133.6 mg/dL
- RALB [2]: 3.4 g/dL
- TBIL [2]: 0.1 mg/dL
- TC [2]: 75.8 mg/dL
- TG [2]: 56.2 mg/dL
- TP [2]: 5.4 g/dL
- gamma-GTP [2]: 0.8 IU/L
- TERMINAL_BW [3]: 219.8 g
- Bas [3]: 0.4%
- Eos [3]: 0.6%
- Fbg [3]: 227 mg/dL
- Hb [3]: 13.2 g/dL
- Ht [3]: 38.2%
- Lym [3]: 78.8%
- MCH [3]: 21.7 pg
- MCHC [3]: 34.5%
- MCV [3]: 63 fL
- Mono [3]: 2.6%
- Neu [3]: 16.6%
- PT [3]: 12.6 s
- Plat [3]: 122.8 x10_4/uL
- RBC [3]: 606.2 x10_4/ul
- Ret [3]: 8.3%
- WBC [3]: 82.3 x10_2/uL
- KIDNEY_L [3]: 1 g
- KIDNEY_R [3]: 1 g
- KIDNEY_TOTAL [3]: 2 g
- LIVER [3]: 9 g
- ALP [3]: 922.2 IU/L
- ALT [3]: 30.6 IU/L
- AST [3]: 68 IU/L
- BUN [3]: 11.4 mg/dL
- CRE [3]: 0.4 mg/dL
- Ca [3]: 10.7 mg/dL
- Cl [3]: 104 meq/L
- DBIL [3]: 0.066 mg/dL
- GLC [3]: 203.4 mg/dL
- IP [3]: 10.2 mg/dL
- K [3]: 3.8 meq/L
- LDH [3]: 180.2 IU/L
- Na [3]: 141.8 meq/L
- PL [3]: 132.6 mg/dL
- RALB [3]: 3.3 g/dL
- TBIL [3]: 0.1 mg/dL
- TC [3]: 69.8 mg/dL
- TG [3]: 59.2 mg/dL
- TP [3]: 5.4 g/dL
- gamma-GTP [3]: 1 IU/L
- TERMINAL_BW [4]: 233.7 g
- Bas [4]: 0.8%
- Eos [4]: 1.2%
- Fbg [4]: 230.4 mg/dL
- Hb [4]: 13 g/dL
- Ht [4]: 38.5%
- Lym [4]: 79%
- MCH [4]: 21.2 pg
- MCHC [4]: 33.8%
- MCV [4]: 62.8 fL
- Mono [4]: 3%
- Neu [4]: 15.8%
- PT [4]: 11.7 s
- Plat [4]: 133.9 x10_4/uL
- RBC [4]: 613.8 x10_4/ul
- Ret [4]: 7.4%
- WBC [4]: 115.9 x10_2/uL
- KIDNEY_L [4]: 1 g
- KIDNEY_R [4]: 1 g
- KIDNEY_TOTAL [4]: 2 g
- LIVER [4]: 10.7 g
- ALP [4]: 1074.4 IU/L
- ALT [4]: 34.8 IU/L
- AST [4]: 73.8 IU/L
- BUN [4]: 16 mg/dL
- CRE [4]: 0.5 mg/dL
- Ca [4]: 10.8 mg/dL
- Cl [4]: 103.8 meq/L
- DBIL [4]: 0.058 mg/dL
- GLC [4]: 203 mg/dL
- IP [4]: 7 mg/dL
- K [4]: 4 meq/L
- LDH [4]: 192.2 IU/L
- Na [4]: 141.2 meq/L
- PL [4]: 140 mg/dL
- RALB [4]: 3.4 g/dL
- TBIL [4]: 0.1 mg/dL
- TC [4]: 78.6 mg/dL
- TG [4]: 80.2 mg/dL
- TP [4]: 5.6 g/dL
- gamma-GTP [4]: 1 IU/L
- TERMINAL_BW (45 mg/kg, 3 h, dose level Low): 220 g
- Bas (45 mg/kg, 3 h, dose level Low): 0%
- Eos (45 mg/kg, 3 h, dose level Low): 1%
- Fbg (45 mg/kg, 3 h, dose level Low): 221.8 mg/dL
- Hb (45 mg/kg, 3 h, dose level Low): 12.5 g/dL
- Ht (45 mg/kg, 3 h, dose level Low): 36.7%
- Lym (45 mg/kg, 3 h, dose level Low): 79.4%
- MCH (45 mg/kg, 3 h, dose level Low): 21 pg
- MCHC (45 mg/kg, 3 h, dose level Low): 33.9%
- MCV (45 mg/kg, 3 h, dose level Low): 61.9 fL
- Mono (45 mg/kg, 3 h, dose level Low): 2.2%
- Neu (45 mg/kg, 3 h, dose level Low): 17%
- PT (45 mg/kg, 3 h, dose level Low): 12.1 s
- Plat (45 mg/kg, 3 h, dose level Low): 127.9 x10_4/uL
- RBC (45 mg/kg, 3 h, dose level Low): 594 x10_4/ul
- Ret (45 mg/kg, 3 h, dose level Low): 7.8%
- WBC (45 mg/kg, 3 h, dose level Low): 55.8 x10_2/uL
- KIDNEY_L (45 mg/kg, 3 h, dose level Low): 0.9 g
- KIDNEY_R (45 mg/kg, 3 h, dose level Low): 0.9 g
- KIDNEY_TOTAL (45 mg/kg, 3 h, dose level Low): 1.8 g
- LIVER (45 mg/kg, 3 h, dose level Low): 10.3 g
- ALP (45 mg/kg, 3 h, dose level Low): 910.4 IU/L
- ALT (45 mg/kg, 3 h, dose level Low): 31.6 IU/L
- AST (45 mg/kg, 3 h, dose level Low): 66.4 IU/L
- BUN (45 mg/kg, 3 h, dose level Low): 10.2 mg/dL
- CRE (45 mg/kg, 3 h, dose level Low): 0.4 mg/dL
- Ca (45 mg/kg, 3 h, dose level Low): 10.9 mg/dL
- Cl (45 mg/kg, 3 h, dose level Low): 105.6 meq/L
- DBIL (45 mg/kg, 3 h, dose level Low): 0.066 mg/dL
- GLC (45 mg/kg, 3 h, dose level Low): 244.4 mg/dL
- IP (45 mg/kg, 3 h, dose level Low): 10.2 mg/dL
- K (45 mg/kg, 3 h, dose level Low): 3.8 meq/L
- LDH (45 mg/kg, 3 h, dose level Low): 210 IU/L
- Na (45 mg/kg, 3 h, dose level Low): 144.8 meq/L
- PL (45 mg/kg, 3 h, dose level Low): 151 mg/dL
- RALB (45 mg/kg, 3 h, dose level Low): 3.5 g/dL
- TBIL (45 mg/kg, 3 h, dose level Low): 0.1 mg/dL
- TC (45 mg/kg, 3 h, dose level Low): 77.8 mg/dL
- TG (45 mg/kg, 3 h, dose level Low): 77 mg/dL
- TP (45 mg/kg, 3 h, dose level Low): 5.4 g/dL
- gamma-GTP (45 mg/kg, 3 h, dose level Low): 1 IU/L
- TERMINAL_BW (45 mg/kg, 6 h, dose level Low): 214.5 g
- Bas (45 mg/kg, 6 h, dose level Low): 0.2%
- Eos (45 mg/kg, 6 h, dose level Low): 1%
- Fbg (45 mg/kg, 6 h, dose level Low): 221.8 mg/dL
- Hb (45 mg/kg, 6 h, dose level Low): 12.5 g/dL
- Ht (45 mg/kg, 6 h, dose level Low): 36.9%
- Lym (45 mg/kg, 6 h, dose level Low): 69.4%
- MCH (45 mg/kg, 6 h, dose level Low): 21 pg
- MCHC (45 mg/kg, 6 h, dose level Low): 34%
- MCV (45 mg/kg, 6 h, dose level Low): 62 fL
- Mono (45 mg/kg, 6 h, dose level Low): 2.2%
- Neu (45 mg/kg, 6 h, dose level Low): 26%
- PT (45 mg/kg, 6 h, dose level Low): 12 s
- Plat (45 mg/kg, 6 h, dose level Low): 129.9 x10_4/uL
- RBC (45 mg/kg, 6 h, dose level Low): 596.2 x10_4/ul
- Ret (45 mg/kg, 6 h, dose level Low): 8.2%
- WBC (45 mg/kg, 6 h, dose level Low): 48 x10_2/uL
- KIDNEY_L (45 mg/kg, 6 h, dose level Low): 1 g
- KIDNEY_R (45 mg/kg, 6 h, dose level Low): 0.9 g
- KIDNEY_TOTAL (45 mg/kg, 6 h, dose level Low): 1.9 g
- LIVER (45 mg/kg, 6 h, dose level Low): 9.4 g
- ALP (45 mg/kg, 6 h, dose level Low): 861 IU/L
- ALT (45 mg/kg, 6 h, dose level Low): 29.6 IU/L
- AST (45 mg/kg, 6 h, dose level Low): 68.4 IU/L
- BUN (45 mg/kg, 6 h, dose level Low): 8.6 mg/dL
- CRE (45 mg/kg, 6 h, dose level Low): 0.4 mg/dL
- Ca (45 mg/kg, 6 h, dose level Low): 10.5 mg/dL
- Cl (45 mg/kg, 6 h, dose level Low): 106.4 meq/L
- DBIL (45 mg/kg, 6 h, dose level Low): 0.07 mg/dL
- GLC (45 mg/kg, 6 h, dose level Low): 249.6 mg/dL
- IP (45 mg/kg, 6 h, dose level Low): 10.8 mg/dL
- K (45 mg/kg, 6 h, dose level Low): 3.6 meq/L
- LDH (45 mg/kg, 6 h, dose level Low): 219.6 IU/L
- Na (45 mg/kg, 6 h, dose level Low): 144.8 meq/L
- PL (45 mg/kg, 6 h, dose level Low): 138.2 mg/dL
- RALB (45 mg/kg, 6 h, dose level Low): 3.4 g/dL
- TBIL (45 mg/kg, 6 h, dose level Low): 0.1 mg/dL
- TC (45 mg/kg, 6 h, dose level Low): 79.2 mg/dL
- TG (45 mg/kg, 6 h, dose level Low): 19.2 mg/dL
- TP (45 mg/kg, 6 h, dose level Low): 5.4 g/dL
- gamma-GTP (45 mg/kg, 6 h, dose level Low): 1 IU/L
